Assay results: US9540314B2, “N-cycloalkyl-N-[(cycloalkenylphenyl)methylene]-(thio) carboxamide derivatives” (BAYER INTELLECTUAL PROPERTY GMBH, priority 2012, dated 2017)

Experiments:
Sphaerotheca fuliginea = assay: In vivo preventive test on Sphaerotheca fuliginea (powdery mildew on cucurbits); conditions: 500 ppm, gherkin plants, grading 12 days after contamination
Method: The active ingredients tested are prepared by homogenization in a mixture of acetone/tween/DMSO and then diluted with water to obtain the desired active material concentration.
Gherkin plants (“Vert petit de Paris” variety), sown in starter cups on a 50/50 peat soil-pozzolana substrate and grown at 24° C., are treated at the Z11 cotyledon stage by spraying with the active ingredient prepared as described above. Plants, used as controls, are treated with the mixture of acetone/tween/DMSO/water not containing the active material.
After 24 hours, the plants are contaminated by spraying the cotyledons with an aqueous suspension of Sphaerotheca fuliginea spores (100 000 spores per mL). The spores are collected from infected plants. The contaminated gherkin plants are incubated at about 20° C. and at 70-80% relative humidity.
(§1) Grading (% of efficacy) is carried out 12 days after the contamination, in comparison with the control plants.
Under these conditions, good (at least 70%) to total protection is observed at a dose of 500 ppm of active ingredient with the following compounds from table A: […]

Pyrenophora teres = assay: In vivo preventive test on Pyrenophora teres (barley); conditions: 500 ppm of active ingredient; barley plants, preventive spray; grading 14 days after contamination
Method: (§2) The active ingredients tested are prepared by homogenization in a mixture of acetone/tween/DMSO, and then diluted with water to obtain the desired active material concentration.
Barley plants (“Plaisant” variety), sown in starter cups on a 50/50 peat soil pozzolana substrate and grown at 22° C., are treated at the 1 leaf stage (10 cm height) by spraying with the active ingredient prepared as described above. Plants, used as controls, are treated with the mixture of acetone/tween/DMSO/water not containing the active material.
After 24 hours, the plants are contaminated by spraying the leaves with an aqueous suspension of Pyrenophora teres spores (12 000 spores per mL). The spores are collected from a 12-day-old culture.
The contaminated barley plants are incubated for 48 hours at 20° C. and at 100% relative humidity, and then for 12 days at 20° C. at 70-80% relative humidity.
Grading (% of efficacy) is carried out 14 days after the contamination, in comparison with the control plants.
Under these conditions, good (at least 70%) to total protection is observed at a dose of 500 ppm of active ingredient with the following compounds from table H1: […]

Alternaria brassicae = assay: In vivo preventive test on Alternaria brassicae (leaf spot on radish); conditions: Table C1, 500 ppm, radish plants, grading 6 days after contamination
Method: as §2
Radish plants (“Pernod Clair” variety), sown in starter cups on a 50/50 peat soil pozzolana substrate and grown at 17° C., are treated at the cotyledon stage by spraying with the active ingredient prepared as described above. Plants, used as controls, are treated with the mixture of acetone/tween/DMSO/water not containing the active material.
After 24 hours, the plants are contaminated by spraying the cotyledons with an aqueous suspension of Alternaria brassicae spores (50 000 spores per mL). The spores are collected from a 15-day-old culture.
The contaminated radish plants are incubated at 20° C. and at 100% relative humidity.
Grading (% of efficacy) is carried out 6 days after the contamination, in comparison with the control plants.
Under these conditions, high (at least 80%) to excellent (at least 90%) protection is observed at a dose of 500 ppm of active ingredient with the following compounds from table C1: […]

Uromyces appendiculatus = assay: In vivo preventive test on Uromyces appendiculatus (bean rust); conditions: 500 ppm of active ingredient; bean plants, preventive spray; grading 11 days after contamination (table K1)
Method: as §2
(§3) After 24 hours, the plants are contaminated by spraying the leaves with an aqueous suspension of Uromyces appendiculatus spores (150 000 spores per mL). The spores are collected from infected plants and are suspended in water containing 2.5 mL/L of Tween 80 at 10%. The contaminated bean plants are incubated for 24 hours at 20° C. and at 100% relative humidity, and then for 10 days at 20° C. and at 70-80% relative humidity.
Grading (% of efficacy) is carried out 11 days after the contamination, in comparison with the control plants.

[1] = log P by HPLC on a reversed-phase column (C 18), EEC Directive 79/831 Annex V.A8; assay type: physicochemical; conditions: Table 1; HPLC C 18, 40° C., 0.1% aqueous formic acid and acetonitrile; several values = mixture of 2 or more isomers
Method: In table 1, the log P values were determined in accordance with EEC Directive 79/831 Annex V.A8 by HPLC (High Performance Liquid Chromatography) on a reversed-phase column (C 18), using the method described below:
Temperature: 40° C.; Mobile phases: 0.1% aqueous formic acid and acetonitrile; linear gradient from 10% acetonitrile to 90% acetonitrile.
Calibration was carried out using unbranched alkan-2-ones (comprising 3 to 16 carbon atoms) with known log P values (determination of the log P values by the retention times using linear interpolation between two successive alkanones). lambda-max-values were determined using UV-spectra from 200 nm to 400 nm and the peak values of the chromatographic signals.

Septoria tritici = assay: In vivo preventive test on Septoria tritici (wheat); conditions: 500 ppm of active ingredient; wheat plants, preventive spray; grading 24 days after contamination
Method: as §2
(§4) Wheat plants (“Scipion” variety), sown in starter cups on a 50/50 peat soil pozzolana substrate and grown at 22° C., are treated at the 1 leaf stage (10 cm height) by spraying with the active ingredient prepared as described above. Plants, used as controls, are treated with the mixture of acetone/tween/DMSO/water not containing the active material.
After 24 hours, the plants are contaminated by spraying the leaves with an aqueous suspension of cryopreserved Septoria tritici spores (500 000 spores per mL). The contaminated wheat plants are incubated for 72 hours at 18° C. and at 100% relative humidity, and then for 21 days at 90% relative humidity.
Grading (% of efficacy) is carried out 24 days after the contamination, in comparison with the control plants.
Under these conditions, good (at least 70%) to total protection is observed at a dose of 500 ppm of active ingredient with the following compounds from table J: […]

Puccinia recondita = assay: In vivo preventive test on Puccinia recondita (brown rust on wheat); conditions: 500 ppm of active ingredient; wheat plants, preventive spray; grading 12 days after contamination
Method: as §2, §4
as §3, with “of Puccinia recondita” for “of Uromyces appendiculatus”, “spores (100” for “spores (150”, “from an” for “from”, “infected plant” for “infected plants”, “contaminated wheat” for “contaminated bean”
as §1
Under these conditions, good (at least 70%) to total protection is observed at a dose of 500 ppm of active ingredient with the following compounds from table I: […]

## CC1CC=C(c2ccccc2C(C)N(C(=O)c2c(C(F)F)nn(C)c2F)C2CC2)CC1 (mixture of isomers) [I.45]
Sphaerotheca fuliginea
  Efficacy: 100%
Pyrenophora teres
  Efficacy: 97%
Alternaria brassicae
  Efficacy: 98%
Uromyces appendiculatus
  Efficacy: 75%
[1]
  logP: 5.03
Septoria tritici
  Efficacy: 100%
Puccinia recondita
  Efficacy: 81%

## Cn1nc(C(F)F)c(C(=O)N(Cc2c(C3=CCCC3)ccc(F)c2F)C2CC2)c1F [I.19]
Sphaerotheca fuliginea
  Efficacy: 100%
Pyrenophora teres
  Efficacy: 93%
Alternaria brassicae
  Efficacy: 96%
Uromyces appendiculatus
  Efficacy: 100%
[1]
  logP: 4.11
Septoria tritici
  Efficacy: 97%
Puccinia recondita
  Efficacy: 98%

## Cn1nc(C(F)F)c(C(=O)N(Cc2c(C(F)(F)F)ccc(C3=CCCC3)c2F)C2CC2)c1F [I.7]
Sphaerotheca fuliginea
  Efficacy: 100%
Pyrenophora teres
  Efficacy: 86%
Alternaria brassicae
  Efficacy: 80%
Uromyces appendiculatus
  Efficacy: 98%
[1]
  logP: 4.81
Septoria tritici
  Efficacy: 97%
Puccinia recondita
  Efficacy: 81%
